Consider twelve compounds from patent US12264148B2, “Ivosidenib forms and pharmaceutical compositions” (Servier Pharmaceuticals LLC, priority 2018, dated 2025).

One series concerns mutant IDH1 (mIDH1). As to conditions: cited from earlier work.
In the next series the test system is mutant IDH2 (mIDH2). The conditions noted are these: tool compound; Rohle et al. Science 2013; cited from earlier work.
A further series concerns mIDH1-driven gliomas. The conditions noted are these: some model systems; Rohle et al. Science 2013; cited from earlier work.
Series [1] concerns bacterial reverse mutation. The conditions noted are these: Registered substances; cited from earlier work.
For series [2] the following is noted: potential impurities of ivosidenib drug substance; cited from earlier work.
The nature of series [3]: Solubility of solid state forms in methanol. Format: physicochemical.
A short description of series [4]: Solubility in 5:95 v/v iPrOAc:heptane slurry. Type of series: physicochemical. The conditions noted are these: remained a thick slurry.
A short description of series [5]: Competitive slurries of Form L, Form M and Form N. Type of series: physicochemical. As to conditions: Form L, N in dichloromethane, heptane, tBME, acetone, ambient or 35/50 °C. How it is done: The temperature was increased to 70° C. to dissolve material. Anti-solvent addition (60 mL heptane) at 60 mL/h was carried out at 70° C. Once the anti-solvent addition was complete, the reaction was cooled to 60° C. and seeded with 0.63 g of Form B ivosidenib, which was stirred at 60° C. for 4 h then cooled to 15° C. over 10 h. An anti-solvent addition was started (308 mL heptane) at 75 mL/h, 15° C., 200 rpm. When the anti-solvent addition finished, the mixture was stirred at 15° C. for 2 h then isolated solid through filtration using a Buchner funnel (120 mm Ø) and washed with 246 mL of iPrOAc:heptane (1:1 v/v). In isopropyl acetate:heptane 5:95 v/v, Form N was retained, while in isopropyl acetate:heptane 20:80 v/v, a mixture of Form B and Form N was obtained.
The following procedure was followed for competitive slurry trials of the Form L, Form M, and Form N polymorphs: Approximately 50 or 75 mg of each different solid form was weighed out into 1.5 mL screw-cap vials. […]
Aliquots (100 μL or 25 μL) of appropriate solvent added as required to obtain a mobile slurry which was then stirred at either ambient (ca. 23° C.) or elevated (35 or 50° C.) temperature for ca. 21 or 68.5 h (see Table 4 for details). Solids were isolated solid by centrifugation and analyzed by XRPD. […]

Series [6] is described as follows: Dissolution of 250 mg tablets spiked with crystalline form, Medium A (pH 6.8, 0.6% SDS). Format: physicochemical. The conditions noted are these: 250 mg tablets vs target (nominal) formulation. The text has this:
(§1) In order to assess the impact of crystalline polymorphic forms on dissolution profiles, variant tablets were manufactured with SDI spiked with drug substance of two different crystalline polymorphs: Form B, and Form L, which forms are as described above. As used herein, the term “spiked” or “spiking” is used consistently with usage in the field of pharmaceutical manufacturing, namely the introduction of a particular form to the crystallization solution to encourage nucleation and growth. These forms were selected because it was determined that if an SDI should crystallize, these two forms would be most likely to be present. However, it is noted that the SDI can be reliably made in completely amorphous form, with no detectable crystalline form present even under stressed conditions.
250 mg tables were manufactured by adding 50 mg (20% w/w) of crystalline Form L or Form B with the ivosidenib SDI (therefore, amorphous SDI was present at 80% w/w as a measure of the active ingredient.) […]
Similar dissolution studies were undertaken with Medium B (pH 6.8, 0.4% SDS). Similarity factors (f2) were calculated to assess the dissolution profiles, compared to a target formulation. […]

Series [7] can be described thus: Dissolution of 250 mg tablets spiked with crystalline form, Medium B (pH 6.8, 0.4% SDS). Format: physicochemical. The conditions noted are these: 250 mg tablets vs target (nominal) formulation.
Text: as §1
250 mg tables were manufactured by adding 50 mg (20% w/w) of crystalline Form L or Form B with the ivosidenib SDI (therefore, amorphous SDI was present at 80% w/w as a measure of the active ingredient.)
Similar dissolution studies were undertaken with Medium B (pH 6.8, 0.4% SDS). Similarity factors (f2) were calculated to assess the dissolution profiles, compared to a target formulation. The similarity factors are included in Table 21.

Series [8] has as its system bacterial reverse mutation. As to the kind of experiment: In vitro bacterial reverse mutation assay (Ames).
The nature of series [9]: Approximate solubility of ivosidenib freebase in 20 solvent systems at RT. Format: physicochemical. Here is the method: Approximate solubility of ivosidenib freebase was determined in 20 solvent systems at RT. In the experiment, ˜2 mg of ivosidenib was added into a 3-mL glass vial, followed by the addition of corresponding solvent. The solvent was added by 100 μL step wise until the solution was visually clear or a total volume of 2 mL was reached. This solubility information was used to select solvents for the polymorph screening.

The test system of another series is mutant IDH1 proteins. As to conditions: U.S. Publication No. 2013/0190249 A1; cited from earlier work.

Each structure is given as a SMILES string. ≈ marks a conversion by molar mass, not a printed value.

As for `Cc1ccccc1C(C(=O)NC1CCCCC1)N(C(=O)Cn1ccnc1C)c1cccc(F)c1` (stereo not drawn) [AGI-5198], the “inhibition of mutant IDH1” value in the series on mutant IDH1 (mIDH1) (tool compound, Rohle et al. Science 2013) is “inhibit mutant IDH1 (mIDH1)”. For the same compound, the “inhibition of mutant IDH2” value with mutant IDH2 (mIDH2) was “not mutant IDH2 (mIDH2)”. In the series with mIDH1-driven gliomas, the “growth of mIDH1-driven gliomas” value was “repress growth”.
For the compound `ClCc1ccccc1Cl` [2-chlorobenzyl chloride], in series [1], the “Ames result reported by ECHA” value is given as “Ames-negative”.
With `O=Cc1ccccc1` [benzaldehyde], the “mutagenicity according to literature” value in series [2] is reported as “known mutagens”.
Take `c1ccccc1` [benzene]: the “mutagenicity according to literature” value in series [2] is listed as “known mutagens”.
As to `ClCc1ccccc1` [benzyl chloride], the “mutagenicity according to literature” value in series [2] was “known mutagens”.
`N#Cc1ccnc(N2C(=O)CC[C@H]2C(=O)N(c2cncc(F)c2)[C@H](C(=O)NC2CC(F)(F)C2)c2ccccc2Cl)c1` [Form N]: the solubility (commonly how much of the substance goes into solution per volume) in [3] (compared with ~70 mg/mL AG-120 in the SDI spray solution) was approximately 110 mg/mL (≈ 189 mM); in series [3] (organic solvent or mixture, thermodynamic from solid, read-out: solubility in methanol), 113 mg/mL (≈ 194 mM). Moreover, in series [4], the “solubility in 5:95 v/v iPrOAc:heptane” value is “poorly soluble”. The “most stable anhydrous form in competitive slurries” value in [5] is listed as “stable anhydrous form”.
As to `N#Cc1ccnc(N2C(=O)CC[C@H]2C(=O)N(c2cncc(F)c2)[C@H](C(=O)NC2CC(F)(F)C2)c2ccccc2Cl)c1` [Form B], the “Similarity factor (f2) result for dissolution medium A” value in series [6] was found to be 26.0. Further, the “Similarity factor (f2) result for dissolution medium B” value in [7] was 43.1.
Turning to `Clc1ccccc1C(Cl)Cl` [1-chloro-2-(dichloromethyl)benzene], the “Ames result reported by ECHA” value in [1] was “Ames-negative”.
As for `N#Cc1ccnc(N2C(=O)CC[C@H]2C(=O)N(c2cncc(F)c2)[C@H](C(=O)NC2CC(F)(F)C2)c2ccccc2Cl)c1` [Form M], the solubility in methanol in series [3] was found to be 109 mg/mL (≈ 187 mM). The solubility in series [3] (organic solvent or mixture, thermodynamic from solid, compared with ~70 mg/mL AG-120 in the SDI spray solution, read-out: solubility) was approximately 110 mg/mL (≈ 189 mM). Moreover, in series [4], the “solubility in 5:95 v/v iPrOAc:heptane” value is “poorly soluble”.
As for `Fc1cncc(/N=C/c2ccccc2Cl)c1` [(E)-1-(2-chlorophenyl)-N-(5-fluoropyridin-3-yl) methanimine], in series [8], the Ames test result was “negative”.
With `N#Cc1ccnc(N2C(=O)CC[C@H]2C(=O)N(c2cncc(F)c2)[C@H](C(=O)NC2CC(F)(F)C2)c2ccccc2Cl)c1` [Form L], the “Similarity factor (f2) result for dissolution medium A” value in [6] was 28.9. The “Similarity factor (f2) result for dissolution medium B” value in series [7] worked out at 48.5.
In the case of `N#Cc1ccnc(N2C(=O)CC[C@H]2C(=O)N(c2cncc(F)c2)[C@H](C(=O)NC2CC(F)(F)C2)c2ccccc2Cl)c1` [ivosidenib, (S)—N—((S)-1-(2-Chlorophenyl)-2-(3,3-difluorocyclobutylamino)-2-oxoethyl)-1-(4-cyanopyridin-2-yl)-N-(5-fluoropyridin-3-yl)-5-oxopyrrolidine-2-carboxamide], the “Solubility (mg/mL)” value in series [9] (Acetic acid, RT) is recorded as 40.4~20.2 mg/mL; in series [9] (DMSO, RT), 46.6~23.2 mg/mL; in [9] (IPA, RT), 38.8~19.4 mg/mL; in [9] (IPAC, RT), 40.2~20.1 mg/mL; in [9] (MIBK, RT), 18.6~12.0 mg/mL; in [9] (Toluene, RT), 18.6~12.4 mg/mL. Also, the solubility is more than 41.6 mg/mL in series [9] (organic solvent or mixture, thermodynamic from solid, 1,4-Dioxane, RT); more than 41.4 mg/mL in series [9] (organic solvent or mixture, thermodynamic from solid, 2-MeTHF, RT); more than 36.8 mg/mL in series [9] (organic solvent or mixture, thermodynamic from solid, ACN, RT); more than 36.4 mg/mL in series [9] (organic solvent or mixture, thermodynamic from solid, Acetone, RT); more than 38.2 mg/mL in [9] (organic solvent or mixture, thermodynamic from solid, CHCl3, RT); more than 24.5 mg/mL in [9] (organic solvent or mixture, thermodynamic from solid, DMA, RT). Further, the solubility in series [9] (organic solvent or mixture, thermodynamic from solid, EtOAc, RT) was more than 41.8 mg/mL; in series [9] (organic solvent or mixture, thermodynamic from solid, EtOH, RT), more than 39.4 mg/mL; in series [9] (organic solvent or mixture, thermodynamic from solid, Heptane, RT), less than 0.95 mg/mL; in [9] (organic solvent or mixture, thermodynamic from solid, MTBE, RT), more than 37.8 mg/mL; in [9] (organic solvent or mixture, thermodynamic from solid, MeOH, RT) it was more than 47.6 mg/mL; in series [9] (organic solvent or mixture, thermodynamic from solid, NMP, RT), more than 42 mg/mL. Besides, the solubility in [9] (organic solvent or mixture, thermodynamic from solid, THF, RT) is more than 39 mg/mL; in [9] (water, thermodynamic from solid, H2O, RT), less than 1.26 mg/mL. Also, the “inhibition of mutant IDH1 proteins in biochemical assays” value in the series with mutant IDH1 (mIDH1) (U.S. Publication No. 2013/0190249 A1) is recorded as “inhibitor”. The “inhibition of mutant IDH1 proteins in cellular assays” value in the series with mutant IDH1 proteins was “inhibitor”.
